# Experimental data as given in patent publication US10888569B1, “Methods and compositions for treating cancer” (THE UNIVERSITY OF CHICAGO, priority 2017, dated 2021).
# Tests used:
# HMOX1 = test: Real-time quantitative PCR of HMOX1; format: cell-based, human; settings: hemin 20 μM, 48 hours; BM1 and MB436 cells
# Procedure: (§1) Total RNA from cells and tumor samples was isolated using Trizol (Invitrogen) according to the manufacturer's instructions. Two μg of RNA was adapted for reverse transcriptase PCR (Applied Biosystem) to generate cDNA. Real-time PCR was carried out using LightCycler 96 (Roche) and a Fast Start Essential DNA master mix (2×) reagent. Cq values normalized relative to the expression of endogenous control genes using 2^(−ΔΔCq) were plotted.
# MB436 xenograft tumors = settings: hemin 50 mg/kg/day i.p. 10 consecutive days prior to metformin 200 mg/kg
# Procedure: Two million human breast cancer cells (MDA-MB-436-shCont, MDA-MB-436-shBACH1, BM1-shBACH1, or BM1-shCont) in 100 μl PBS were injected into the mammary fat pads of 5 to 6 weeks old athymic nude female mice (Charles River Laboratories). When tumors were about 20-30 or 50 mm^3 in volume, hemin (50 mg/kg/day) or vehicle (20 mM NaOH in phosphate buffered saline) was injected intraperitoneally for 10 days prior to metformin treatment for 8 weeks. Metformin (200 mg/kg for MDA-MB-436 cells or 300 mg/kg for BM1-cells) was provided in drinking water ad libidum. Tumor growth was monitored weekly by caliper measurement in two dimensions to generate ellipsoid volumes using an equation of vol.=0.4×(L×W^2).
# BACH1 = target: T1, BACH1 (Mus musculus, UniProt P97302, C438A/C464A/C495A/C649A); test: Immunoblotting of BACH1 in cell lysates after hemin; format: cell-based, human; settings: hemin 20 μM
# T1 construct: Protein blots of BACH1 levels in BM1 and MB436 cells treated with Hemin for 4 or 24 hours; endogenous in cells; host or cells: BM1 (MDA-MB-231 derivative), MDA-MB-436, BT549
# T1 sequence (P97302 1-739 C438A/C464A/C495A/C649A): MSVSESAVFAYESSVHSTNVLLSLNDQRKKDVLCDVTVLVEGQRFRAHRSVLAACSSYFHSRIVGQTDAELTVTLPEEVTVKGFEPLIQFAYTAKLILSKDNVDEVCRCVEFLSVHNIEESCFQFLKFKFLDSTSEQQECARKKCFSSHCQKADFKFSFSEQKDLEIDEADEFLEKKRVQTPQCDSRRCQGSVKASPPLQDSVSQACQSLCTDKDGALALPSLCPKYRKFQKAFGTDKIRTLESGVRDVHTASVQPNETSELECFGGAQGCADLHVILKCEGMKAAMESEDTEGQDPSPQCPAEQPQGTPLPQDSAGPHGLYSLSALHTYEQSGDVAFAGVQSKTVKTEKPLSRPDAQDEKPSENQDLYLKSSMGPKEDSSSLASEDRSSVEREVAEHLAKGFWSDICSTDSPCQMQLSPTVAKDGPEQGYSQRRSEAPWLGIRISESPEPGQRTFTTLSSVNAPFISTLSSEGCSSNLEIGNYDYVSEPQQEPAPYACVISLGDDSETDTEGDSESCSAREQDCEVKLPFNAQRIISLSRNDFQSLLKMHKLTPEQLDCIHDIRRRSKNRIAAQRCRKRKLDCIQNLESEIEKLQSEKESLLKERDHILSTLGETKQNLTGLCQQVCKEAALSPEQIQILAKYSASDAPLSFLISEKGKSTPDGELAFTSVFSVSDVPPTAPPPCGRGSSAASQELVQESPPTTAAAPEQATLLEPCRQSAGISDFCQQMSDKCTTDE
# Procedure: Whole cell lysates were prepared using RIPA buffer (Sigma) with protease inhibitor cocktails (1:100 ThermoFisher) and phosphatase inhibitors (SimpleStop1, Gold Biotechnology) at 4° C. and quantified using Bradford assays for western blotting using antibodies against BACH1 (sc-271211; Santa Cruz), and alpha-TUBULIN (sc-28199; Santa Cruz). Blots were imaged and processed using a Licor Odyssey Fc, dual-mode imaging system (Licor).
# [1] = system: TNBC cells (BM1, MB436, MB468, BT549); format: cell-based, human
# Procedure: TNBC cell lines stably knocked down with lenti-viral shRNA for BACH1 were constructed and maintained as described previously. Gene expression analysis of cultured cells and isolated tumor tissues used a Reverse transcriptase kit followed by Roche96 cycler for real time mRNA quantification and Lycor imaging for immunoblotting. For in vitro cell viability assay with mitochondrial inhibitors, TNBC cells (2×10^3-5×10^3/well) seeded on 96 well plates overnight with culture media (DMEM with 25 mM Glucose) were treated with inhibitors in fresh culture media (DMEM with 1.25 mM Glucose) for 48 and 72 hours and stained with calcein AM and/or monitored for cellular confluency using an IncuCyte Zoom Live Cell Analysis system. Extracellular flux analyzer was used to assay metabolic phenotypes of BACH1-depleted TNBC cells and TNBC cells that are treated with hemin overnight before assays. For bioinformatics analysis using primary patient data cohort (TCGA), cBioportal and R were used.
# Breast cancer cells (5,000 cells/well) and non-malignant mammary epithelial cells (8,000 cells/well) were plated on 96-well plates to observe growth of cells every 4 hours by phase contrast imaging using an IncuCyte Zoom Live Cell Analysis system (Essen Bioscience). After 24 hours of plating, inhibitors were added and monitored until control cells reached 100% confluent. To determine cell viability, cells were seeded in black walled 96-well plates overnight and treated with inhibitors for 48 hours. Calcein AM (R&D system) in PBS was then added and incubated for 1 hour at 37° C. Fluorescence was determined using a Victor3 plate reader (PerkinElmer) with excitation at 420 nm and emission at 520 nm. The absorbance was used to reflect live cell numbers and was normalized to those in control with vehicles and shown as relative viability (%).
# [2] = system: mitochondrial inner membrane genes; test: Real-time quantitative PCR of mitochondrial inner membrane (ETC) genes; format: cell-based, human; settings: hemin 20 μM, 48 hours; BM1 and MB436 cells
# Procedure: as §1
structure (smiles),measurement,setting,value
"C=CC1=C(C)c2cc3[n-]c(cc4[n-]c(cc5nc(cc1n2)C(C)=C5C=C)c(C)c4CCC(=O)O)c(CCC(=O)O)c3C.[Cl-].[Fe+3] [hemin, Chloro[3,7,12,17-tetramethyl-8,13-divinylporphyrin-2,18-dipropanoato(2-)]iron(III)]",HMOX1 expression,HMOX1,increased
same,breast tumor growth / volume,MB436 xenograft tumors,neither hemin nor metformin alone significantly altered tumor growth
same,degradation of heme-resistant BACH1 mutant (Mut-Bach1),BACH1,did not degrade Mut-Bach1
same,cytotoxicity / growth inhibition of cultured TNBC cells,[1]; 20 μM hemin,neither cytotoxic nor growth inhibitory
same,metformin sensitivity of MB468 cells expressing wild type BACH1 when treated with hemin,[1]; MB468 transfected with pCDH-BACH1,metformin sensitivity was restored
same,cytotoxicity / growth inhibition of TNBC cells,[1]; hemin 10-80 μM up to 124 hours,neither cytotoxic nor growth inhibitory
same,mitochondrial gene expression,[2],increased
